Assay results published in the NIST ThermoML archive (doi:10.1016/j.jct.2013.08.029).
Numbers after ± are expanded uncertainties.

Test: xn = mol fraction of the nth substance listed
Settings: 101 kPa, Liquid, Vibrating tube method, x2 = 0.5

mass density (303.15 K): 1189.9 ± 0.6 kg/m3
mass density (308.15 K): 1187.3 ± 0.6 kg/m3
mass density (313.15 K): 1184.7 ± 0.6 kg/m3
mass density (318.15 K): 1182.1 ± 0.6 kg/m3
mass density (323.15 K): 1179.7 ± 0.6 kg/m3
Compound: O=C(O)CC(=O)O [propanedioic acid] + C[N+](C)(C)CCO.[Cl-]
